Measured values from BindingDB's records for doi:10.7270/Q2JD4V5T (Burnham Center for Chemical Genomics, 2008).

target: Ephrin type-A receptor 4 (Mus musculus, UniProt Q03137); assay: PLAP enzyme activity inhibition – biochemical, colorimetric, counter-screen, dose response (AID 779)
Sequence (Q03137 whole entry): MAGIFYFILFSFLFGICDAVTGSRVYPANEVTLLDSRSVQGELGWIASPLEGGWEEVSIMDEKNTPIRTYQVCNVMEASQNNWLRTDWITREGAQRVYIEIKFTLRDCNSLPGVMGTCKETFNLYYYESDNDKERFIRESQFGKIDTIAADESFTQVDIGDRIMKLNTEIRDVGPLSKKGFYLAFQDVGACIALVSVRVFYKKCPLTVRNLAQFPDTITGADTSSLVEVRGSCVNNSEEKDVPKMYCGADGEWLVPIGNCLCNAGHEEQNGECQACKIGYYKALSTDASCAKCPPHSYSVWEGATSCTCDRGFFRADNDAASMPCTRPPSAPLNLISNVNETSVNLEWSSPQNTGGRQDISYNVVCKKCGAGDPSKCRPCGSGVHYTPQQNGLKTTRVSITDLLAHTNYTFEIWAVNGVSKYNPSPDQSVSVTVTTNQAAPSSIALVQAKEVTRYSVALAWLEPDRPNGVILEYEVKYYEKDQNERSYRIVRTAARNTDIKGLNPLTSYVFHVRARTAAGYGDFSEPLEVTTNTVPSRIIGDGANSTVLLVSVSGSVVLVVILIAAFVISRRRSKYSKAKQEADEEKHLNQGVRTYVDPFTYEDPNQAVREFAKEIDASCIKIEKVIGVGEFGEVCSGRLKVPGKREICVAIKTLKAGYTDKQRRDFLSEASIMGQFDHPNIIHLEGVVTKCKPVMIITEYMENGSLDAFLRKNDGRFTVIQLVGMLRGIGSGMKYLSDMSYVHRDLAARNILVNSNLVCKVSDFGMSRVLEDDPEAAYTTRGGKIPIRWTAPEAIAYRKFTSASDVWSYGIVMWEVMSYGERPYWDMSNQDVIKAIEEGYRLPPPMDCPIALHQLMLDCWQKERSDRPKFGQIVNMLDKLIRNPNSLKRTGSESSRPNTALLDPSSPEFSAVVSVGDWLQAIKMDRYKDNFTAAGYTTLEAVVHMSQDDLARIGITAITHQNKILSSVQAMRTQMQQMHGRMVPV

IC50 [µM]	Structure (SMILES)
> 50	CCCCN(CCCC)c1nc2ccccc2nc1C(C#N)C(=O)OCC (stereo unspecified) [(2Z)-2-cyano-2-[3-(dibutylamino)-1H-quinoxalin-2-ylidene]acetic acid ethyl ester]
> 50	CC(CC(=O)c1ccccc1)N=Nc1nc2ccccc2s1 (stereo unspecified) [(E)-3-(1,3-benzothiazol-2-ylhydrazo)-1-phenyl-2-buten-1-one]
> 50	Cc1ccc(Cl)cc1-n1c(C)nc(Cc2ccc([N+](=O)[O-])cc2)c1O [MLS000519000]
> 50	CCN1C(=O)C(C=NN=Cc2ccccc2)c2ccc(C3=NNC(=O)CC3)cc21 (stereo unspecified) [benzaldehyde {[1-ethyl-2-oxo-6-(6-oxo-1,4,5,6-tetrahydro-3-pyridazinyl)-1,2-dihydro-3H-indol-3-ylidene]methyl}hydrazone]

Structure (SMILES)	IC50 [µM]
CCCCOP(=O)(OCCCC)C(C#N)C(C)=O (stereo unspecified) [(Z)-2-dibutoxyphosphoryl-3-hydroxy-2-butenenitrile]	> 50

target: not listed separately; assay: as above

IC50 [µM]	Structure (SMILES)
> 50	O=C1/C(=C\c2nc3ccccc3[nH]2)SC(=S)N1c1ccc(F)cc1 [SMR000163732]
